{
  "source": "patent US5637617A",
  "about": "“Methods for use of GABAa receptor GABAergic compounds” (The Regents of the University of California, priority 1994, dated 1997)",
  "tested_on": "phosphoinositide/Ca2+ pathway",
  "test": "Direct membrane current responses of oocytes to fenamates",
  "format": "cell-based, Xenopus laevis",
  "conditions": "10-100 μM; in some oocytes",
  "data": [
    {"smiles": "Cc1cccc(Nc2ccccc2C(=O)O)c1C", "note": "[Mefenamic acid]", "values": [
      {"measurement": "direct membrane current responses", "result": "able to elicit membrane current responses"}
    ]},
    {"smiles": "Cc1ccc(Cl)c(Nc2ccccc2C(=O)O)c1Cl", "note": "[Meclofenamate, Meclofenamic acid]", "values": [
      {"measurement": "direct membrane current responses", "result": "able to elicit membrane current responses"}
    ]}
  ]
}
